Reference: EP3204002B1, “PHARMACEUTICAL COMBINATION FOR THE TREATMENT OF TUMORS” (International Society for Drug Development S.r.l., priority 2014, dated 2016)
Where a name gives a salt, the structure may show the parent alone.

Tests used:
Assay type in all cases: cell-based, human
U118-MG = assay: cell viability / cytotoxicity by WST-1 colorimetric assay in U118-MG; conditions: alone, 10µM and 100µM
Method: (§1) The cell line ANGM-CSS and U118-MG were used, human glioblastoma multiforme (GBM) lines. The ANGM-CSS cell line (ECACC cat n°08040401) was supplied by Dr. Angelo Notarangelo, Laboratorio di Citogenetica, IRCCS Casa Sollievo della Sofferenza, San Giovanni Rotondo (FG), Italy. The U118-MG line was purchased from ATCC, Manassas, VA, USA. The culture medium consisted of DMEM:HAMS F12 (1:1) (Sigma-Aldrich) with the addition of 2mM of L-Glutamine (Sigma Aldrich), 10% Fetal Bovine Serum (FBS, Sigma-Aldrich), 100 units/ml penicillin and 100µg/ml streptomycin (P/S) at 37°C in an atmosphere with 5% CO2.
(§2) The cytotoxicity was evaluated via a colorimetric assay, using WST-1 (4-[3-(4-iodophenyl)-2-(4-nitrophenyl)-2H-5-tetrazolium]-1,3-benzene disulfonate) (Roche, Mannheim, Germany). The inhibition of the cell proliferation is expressed as a percentage of the absorbance at 450nm relative to the non-treated cells in culture. The absorbance was measured by an Enspire microplate reader (PerkinElmer, Wellesley, MA, USA).
(§3) The compound 1 was tested on the two cell lines of human glioblastoma multiforme ANGM-CSS and U118MG, which are resistant to temozolomide.

ANGM-CSS = assay: cell viability / cytotoxicity by WST-1 colorimetric assay in ANGM-CSS; conditions: alone
Method: as §1, §2, §3

U87MG cells = assay: cell viability by MTS assay in U87MG cells; conditions: 72 hours
Method: The human cells of glioblastoma multiforme U87MG were obtained from the national cancer research institute in Genoa (Italy) and were monitored to determine the DNA profiling. The U87MG cells were cultivated in RPMI medium with the addition of 10% FBS, 2 mM of L-glutamine, 100 U/ml of penicillin, […] of streptomycin and 1% of non-essential amino acids at 37°C in 5% CO2. The cells were used in the successive experiments up to the fourth detaching passage.
The U87MG cells were grown at 37°C in a humid atmosphere in the presence of 5% CO2. and were placed in a plate at a density of 3,000 cells/well. After 24 hours, the culture medium was replaced with fresh culture medium containing different concentrations of the compound 9 solubilized in DMSO. After 72 hours, the cell viability was assayed by means of MTS assay according to the manufacturer's instructions. […] The formazan formed is determined via reading of the absorbance at 490 nm measured with an automated plate reader (Victor Wallac 2, Perkin Elmer). […] The results were calculated by subtracting the mean background value from the values obtained from each evaluation and were expressed as a control percentage (non-treated cells). […] At the end of the treatments, the cell viability was determined by means of MTS assay.

SMILES | cell viability (U118-MG) | cell viability (ANGM-CSS; 10µM) | cell viability (ANGM-CSS; 100 µM) | cell viability (U87MG cells; compound alone at 100 nM, 500 nM, 1 µM) | minimal effective concentration (U87MG cells; Homo sapiens, U-87 MG, compound alone, read-out: concentration from which the effect on cell viability is significant) [µM]
COc1cc2c(cc1OC)CN(CC(=O)Nc1ccc3c(c1)/C(=C/c1cccs1)C(=O)N3)CC2 [compound 1, N-[(3Z)-(2-oxo-3-(thiophene-2-ylmethylene)-2,3-dihydro-1H-indol-5-yl]-2-(6,7-dimethoxy-3,4-dihydroisoquinol-2-(1H)-yl)-acetamide hydrochloride] | significant reduction of cell viability | no significant effect on cell viability | significant reduction in cell viability | – | –
Cc1ccc(S(=O)(=O)Nc2ccc3c(c2)/C(=C/c2cnc[nH]2)C(=O)N3)cc1 [compound 9, N-[(3Z)-3-(1H-imidazol-5-ylmethylidene)-2-oxo-2,3-dihydro-1H-indol-5-yl]-4-methylbenzenesulfonamide] | – | – | – | inhibits cell viability, in a concentration-dependent way | ≥ 0.5
